Reference: patent US8460635B2, “Fenretinide derivatives and uses thereof as therapeutic, diagnostic and imaging agents” (Albert Einstein College of Medicine of Yeshiva University, priority 2008, dated 2013)
Entries after “also recorded” stand apart in the source; their conditions may differ. Read-outs that look alike come from different tables or passages of the source.

Columns and labels:
[1] = tested on: MON (INI1−/−) rhabdoid tumor cells; experiment: MTS survival assay of rhabdoid tumor cells; format: cell-based; details: charcoal adsorbed serum
Cyclin D1 = experiment: Immunoblot analysis of Cyclin D1 expression; format: cell-based; details: for Repression of Cyclin D1: biomarker expression, Table 3
Protocol: FIG. 5A-5B. Effect of fenretinide, its derivatives and peptidomimetic compounds on expression of Cyclin D1. Immunoblot analysis to determine the effect of fenretinide and its halogen substitutes (A) and peptidomimetic compounds (B). GAPDH is a loading control.
This assay was performed using a routine laboratory protocol as previously described using chemiluminescence detection method (30). The following antibodies were used: polyclonal α-cyclin D1 Ab-3 (NeoMarkers, Cat# RB-010-P0), monoclonal α-cyclin D1 DCS-6 (NeoMarkers, Cat# MS-210-P1), α-β-Actin (Sigma Cat# A5441) and α-Tubulin-α (Sigma, Cat # T5168).
(§1) The effects of fenretinide, halogen substitutes, and peptidomimetic derivatives on cell cycle regulation and apoptosis were tested by using: i) cell survival assay (MTS); ii) FACS analysis; and iii) immunoblot analysis to determine the effect on Cyclin D1.

MON cells = experiment: FACS analysis of cell cycle and sub-G1 (apoptosis); format: cell-based; details: 2 days
Protocol: (§2) FIG. 3A-3B. Induction of cell cycle arrest and apoptosis by halogen derivatives of fenretinide. A. Cell cycle profile determined by FACS analysis of MON cells treated with either 5 or 10 μM concentrations of fenretinide and its derivatives for 2 days. Percentage of cells at various stages of cell cycle (G1, S and G2) is indicated. B. Percentage of MON cells at sub-G1 when exposed for 2 days to fenretinide and its derivatives.
as §2, with “4A-4B.” for “3A-3B.”, “peptidomimetic” for “halogen”
as §1

[2] = tested on: MON (INI1−/−) rhabdoid tumor cells; experiment: MTS survival assay of rhabdoid tumor cells; format: cell-based; details: for cytotoxic activity against rhabdoid tumor cells (in words): compared with 4-HPR
Protocol: FIG. 1A-1D. Effect of 4HPR derivatives with phenyl group substitutions on survival of rhabdoid tumors cells. MON (INI1−/−) cells were treated with serial dilutions of the 4HPR, ATRA and 4HPR derivatives for three days. Survival assay was carried out as described using MTS assay kit. Percentage of cell survival plotted against concentration of drugs (Mean+/−SEM).
FIG. 2. Effect of fenretinide peptidomimitic derivatives on the survival of rhabdoid tumor cells in culture. % survival of MON rhabdoid tumor cells treated with fenretinide derivatives, when compared to the vehicle treated control. The data in all the panels represent the average of triplicate experiments, and the standard error is indicated.
(§3) The rhabdoid cell line (MON) (88) was cultured in RPMI 1640 supplemented with 10% fetal bovine serum, 2 mM L-glutamine, 50 U/ml penicillin, and 50 μg/ml streptomycin at 37° C. with 5% CO2 and 95% humidified air. 4-(Fenretinide) was either obtained from NCI or synthesized in house. Fenretinide or its synthetic derivatives were reconstituted in 100% ethanol as a 10 mM solution and the aliquots were stored frozen at −80° C., protected from light. Working solutions (50 μM or 200 μM) and serial dilutions were prepared by diluting the stock solution with culture medium, such that the concentration of ethanol was <2% in all dilutions.
Aliquots of 8×10^3 MON cells were plated in 96-well microdilution plates. Twenty four hours after seeding, the cells were treated with serial dilutions of each drug. Following incubation for 24 or more hours, each well was stained with 20 μl of MTS [3-(4,5-dimethylthiazol-2-yl)-5-(3-carboxymethoxyphenyl)-2-(4-sulfophenyl)-2H-tetrazolium, inner salt] that was mixed 20:1 V/V in PMS (phenazine methosulphate, CellTiter 96® AQueous Non-Radioactive Cell Proliferation Assay Kit, Promega, Madison, Wis.) added to each of the well in the microtiter plate containing 100 μl of culture medium. After 4 h incubation, the plates were analyzed by an ELISA plate reader (Wallac Victor, 1420 Multilabel Counter, Perkin Elmer) at 490 nm wave-length. Cell plating, drug treatment and survival assay were performed using the epMotion 5070 automated liquid handling robotic system (Eppendorff, Westbury, N.Y.).
Statistical analysis of the data was carried out using GraphPad Prism (San Diego, Calif.). Relative IC50 values were calculated using the nonlinear regression curve fit with sigmoidal dose response (variable slope) function. Relative IC50 is defined as the concentration giving a response exactly half way between the fitted top and bottom of the survival curve when graphed as percent inhibition versus the log of the concentration of compound. The fitting error, or standard error describes the error involved in fitting the curve.

[3] = Precipitation / solubility in cell culture medium; format: physicochemical
Protocol: as §3

[4] = 72 h, MON cells, three days, compounds in FIG. 1A-1D, concentration of drug required to kill 50% of cells, read-out: IC50
[5] = MON rhabdoid cells, survival assay, values in text, read-out: IC50
[6] = regular FBS, read-out: IC50 (in regular FBS)
[7] = MON cells, three days, compounds in FIG. 1A-1D, concentration of drug required to kill 50% of cells, read-out: IC50

CC1=C(/C=C/C(C)=C/C=C/C(C)=C/C(=O)Nc2ccc(O)c(I)c2)C(C)(C)CCC1 [5(j), (2E,4E,6E,8E)-[3,7-Dimethyl-9-(2,6,6-trimethyl-1-cyclohexenyl)-nona-2,4,6,8-tetraenoylamino]-(3-Iodo, 4-hydroxy)phenylamide]
IC50 [1]: 0.8 µM
Repression of Cyclin D1 (Cyclin D1): Yes
% G1 (MON cells; 5 μM, Table 5): 86.11%
% G2 (MON cells; 5 μM, Table 5): 7.83%
% S (MON cells; 5 μM, Table 5): 6.06%
SubG1 (percentage of MON cells at sub-G1) (MON cells; 5 μM, Table 5): 26.48%
% G1 (MON cells; 10 μM, Table 5): 87.97%
% G2 (MON cells; 10 μM, Table 5): 6.87%
% S (MON cells; 10 μM, Table 5): 5.16%
SubG1 (percentage of MON cells at sub-G1) (MON cells; 10 μM, Table 5): 34.21%
IC50 [2, 4]: 3 µM
IC50 [2, 5]: ~3 µM
cytotoxic activity against rhabdoid tumor cells (in words) [2]: more active when compared to parent Fenretinide
IC50 [2, 6]: 3 µM

CC1=C(/C=C/C(C)=C/C=C/C(C)=C/C(=O)O)C(C)(C)CCC1 [ATRA, All-trans retinoic acid, reference compound]
IC50 [1]: > 15 µM
Repression of Cyclin D1 (Cyclin D1): No
down modulation of Cyclin D1 (in words) (Cyclin D1; rhabdoid tumor cells): unable to down modulate Cyclin D1
% G1 (MON cells; 5 μM, Table 5): 82.64%
% G2 (MON cells; 5 μM, Table 5): 11.04%
% S (MON cells; 5 μM, Table 5): 6.32%
SubG1 (percentage of MON cells at sub-G1) (MON cells; 5 μM, Table 5): 8.22%
% G1 (MON cells; 5 μM, Table 6): 82.64%
% G2 (MON cells; 5 μM, Table 6): 9.07%
% S (MON cells; 5 μM, Table 6): 8.58%
SubG1 (percentage of MON cells at sub-G1) (MON cells; 5 μM, Table 6): 8.22%
% G1 (MON cells; 10 μM, Table 5): 82.08%
% G2 (MON cells; 10 μM, Table 5): 11.21%
% S (MON cells; 10 μM, Table 5): 6.71%
SubG1 (percentage of MON cells at sub-G1) (MON cells; 10 μM, Table 5): 9.27%
% G1 (MON cells; 10 μM, Table 6): 82.08%
% G2 (MON cells; 10 μM, Table 6): 8.18%
% S (MON cells; 10 μM, Table 6): 8.51%
SubG1 (percentage of MON cells at sub-G1) (MON cells; 10 μM, Table 6): 9.27%
IC50 [2, 4]: 100 µM
IC50 [2, 5]: 100 µM
cytotoxic activity against rhabdoid tumor cells (in words) [2]: did not have appreciable cytotoxic activity; also recorded: did not exhibit activities against rhabdoid tumor cells
IC50 [2, 6]: > 50 µM

COc1ccc(NC(=O)/C=C(C)/C=C/C=C(C)/C=C/C2=C(C)CCCC2(C)C)cc1 [5(f), (2E,4E,6E,8E)-[3,7-Dimethyl-9-(2,6,6-trimethyl-1-cyclohexenyl)-nona-2,4,6,8-tetraenoylamino]-(4-methoxy)phenylamide]
behaviour in cell culture medium (precipitation / insolubility) [3]: insoluble in cell culture medium

CC1=C(/C=C/C(C)=C/C=C/C(C)=C/C(=O)Nc2ccc(O)c(F)c2)C(C)(C)CCC1 [5(h), (2E,4E,6E,8E)-[3,7-Dimethyl-9-(2,6,6-trimethyl-1-cyclohexenyl)-nona-2,4,6,8-tetraenoylamino]-(3-fluoro,4-hydroxy)phenylamide]
Repression of Cyclin D1 (Cyclin D1): Yes
% G1 (MON cells; 5 μM, Table 5): 87.23%
% G2 (MON cells; 5 μM, Table 5): 7.10%
% S (MON cells; 5 μM, Table 5): 5.67%
SubG1 (percentage of MON cells at sub-G1) (MON cells; 5 μM, Table 5): 38.78%
% G1 (MON cells; 10 μM, Table 5): 87.22%
% G2 (MON cells; 10 μM, Table 5): 6.97%
% S (MON cells; 10 μM, Table 5): 5.81%
SubG1 (percentage of MON cells at sub-G1) (MON cells; 10 μM, Table 5): 50.79%
IC50 [2, 4]: 8 µM
IC50 [2, 5]: 8 µM
IC50 [2, 6]: 8 µM

(2E,4E,6E,8E)-[3,7-Dimethyl-9-(2,6,6-trimethyl-1-cyclohexenyl)-nona-2,4,6-tetraenoylamino]-(4-alcohol)phenylamide [5(l)]
IC50 [2, 7]: 25 µM
cytotoxic activity against rhabdoid tumor cells (in words) [2]: lack of activity

(2E,4E,6E,8E)-[3,7-Dimethyl-9-(2,6,6-trimethyl-1-cyclohexenyl)-nona-2,4,6,8-tetraenoylamino]-(4-nitro)phenylamide [5(e)]
IC50 [2, 7]: > 200 µM
IC50 [2, 5]: > 200 µM

CCC1=C(C)/C(=C/c2ccc(C(=O)Nc3ccc(O)cc3)cc2)CCC1(C)C [Compound 11a, (E)-4-((3-ethyl-2,4,4-trimethylcyclohex-2-enylidene)methyl)-N-(4-hydroxyphenyl)benzamide]
behaviour in cell culture medium (precipitation / insolubility) [3]: precipitated in cell culture medium
% G1 (MON cells; 5 μM, Table 6): 59.33%
% G2 (MON cells; 5 μM, Table 6): 26.19%
% S (MON cells; 5 μM, Table 6): 14.49%
SubG1 (percentage of MON cells at sub-G1) (MON cells; 5 μM, Table 6): 53.97%
% G1 (MON cells; 10 μM, Table 6): 60.40%
% G2 (MON cells; 10 μM, Table 6): 22.84%
% S (MON cells; 10 μM, Table 6): 16.76%
SubG1 (percentage of MON cells at sub-G1) (MON cells; 10 μM, Table 6): 62.59%

CCC1=C(C)/C(=C/c2ccc(C(=O)O)cc2)CCC1(C)C [Compound 8]
IC50 ([2]; MON cells, nonlinear regression, sigmoidal dose response, read-out: Relative IC50): > 50 µM
IC50 [2, 5]: > 50 µM

CC1=C(/C=C/C(C)=C/C=C/C(C)=C/C(=O)Nc2ccc(Cl)cc2)C(C)(C)CCC1 [5(b), (2E,4E,6E,8E)-[3,7-Dimethyl-9-(2,6,6-trimethyl-1-cyclohexenyl)-nona-2,4,6,8-tetraenoylamino]-(4-chloro)phenylamide]
IC50 [2, 4]: > 200 µM
IC50 [2, 5]: ≥ 150 µM

CC1=C(/C=C/C(C)=C/C=C/C(C)=C/C(=O)Nc2ccc(O)c(Cl)c2)C(C)(C)CCC1 [5(i), (2E,4E,6E,8E)-[3,7-Dimethyl-9-(2,6,6-trimethyl-1-cyclohexenyl)-nona-2,4,6,8-tetraenoylamino]-(3-chloro, 4-hydroxy)phenylamide]
IC50 [1]: 1.5 µM
Repression of Cyclin D1 (Cyclin D1): Yes
IC50 [2, 4]: 12.5 µM
IC50 [2, 5]: 10 µM
IC50 [2, 6]: 10 µM

CC1=C(/C=C/C(C)=C/C=C/C(C)=C/C(=O)Nc2ccc(F)cc2)C(C)(C)CCC1 [5(a)]
IC50 [1]: > 15 µM
% G1 (MON cells; 5 μM, Table 5): 78.56%
% G2 (MON cells; 5 μM, Table 5): 14.61%
% S (MON cells; 5 μM, Table 5): 6.84%
SubG1 (percentage of MON cells at sub-G1) (MON cells; 5 μM, Table 5): 8.30%
% G1 (MON cells; 10 μM, Table 5): 65.50%
% G2 (MON cells; 10 μM, Table 5): 27.25%
% S (MON cells; 10 μM, Table 5): 7.25%
SubG1 (percentage of MON cells at sub-G1) (MON cells; 10 μM, Table 5): 9.44%
IC50 [2, 4]: 150 µM
IC50 [2, 5]: ≥ 150 µM
IC50 [2, 6]: > 50 µM

(2E,4E,6E,8E)-[3,7-Dimethyl-9-(2,6,6-trimethyl-1-cyclohexenyl)-nona-2,4,6,8-tetraenoylamino]-(4-ethylalcohol)phenylamide [5(m)]
IC50 [2, 7]: > 50 µM
cytotoxic activity against rhabdoid tumor cells (in words) [2]: lack of activity

(2E,4E,6E,8E)-[3,7-Dimethyl-9-(2,6,6-trimethyl-1-cyclohexenyl)-nona-2,4,6,8-tetraenoylamino]-(4-bromo)phenylamide [5(c)]
IC50 [2, 7]: 150 µM

(2E,4E,6E,8E)-[3,7-Dimethyl-9-(2,6,6-trimethyl-1-cyclohexenyl)-nona-2,4,6,8-tetraenoylamino]-(3-nitro, 4-hydroxy)phenylamide [5(k)]
behaviour in cell culture medium (precipitation / insolubility) [3]: insoluble in cell culture medium

CC1=C(/C=C/C(C)=C/C=C/C(C)=C/C(=O)Nc2ccc(O)cc2O)C(C)(C)CCC1 [5(n), (2E,4E,6E,8E)-[3,7-Dimethyl-9-(2,6,6-trimethyl-1-cyclohexenyl)-nona-2,4,6,8-tetraenoylamino]-(2,4-dihydroxy)phenylamide]
% G1 (MON cells; 5 μM, Table 5): 85.42%
% G2 (MON cells; 5 μM, Table 5): 8.48%
% S (MON cells; 5 μM, Table 5): 6.11%
SubG1 (percentage of MON cells at sub-G1) (MON cells; 5 μM, Table 5): 25.81%
% G1 (MON cells; 10 μM, Table 5): 88.30%
% G2 (MON cells; 10 μM, Table 5): 6.05%
% S (MON cells; 10 μM, Table 5): 5.65%
SubG1 (percentage of MON cells at sub-G1) (MON cells; 10 μM, Table 5): 43.53%
IC50 [2, 4]: 8 µM
IC50 [2, 5]: 8 µM
cytotoxic activity against rhabdoid tumor cells (in words) [2]: retains 4-HPR activity
IC50 [2, 6]: 8 µM
